Consider five compounds from ChEMBL document CHEMBL1201862, “PubChem BioAssay data set” (2004).

Broadly, the Ki is the dissociation constant of the complex between target and ligand, obtained from inhibition or displacement. One may read the AC50 as the midpoint of the concentration-response curve, whichever way the signal moves. What is called IC50 is the concentration that inhibits the measured activity by half. The GI50 is the concentration at which growth is held to half of that of the control. One may read the EC50 as the concentration needed to bring the measured effect to its halfway point. The CC50 is the concentration that lowers cell viability or growth by half.

The structures appear in SMILES notation. Active and inactive are the calls of the source.

Experiment [1] addresses Mitogen-activated protein kinase 10 (Homo sapiens, UniProt P53779). Put plainly: Navigating the Kinome. Panel member name: MAPK10. Type of experiment: functional.
In experiment [2] the target is Rho-associated protein kinase 2 (Homo sapiens, UniProt O75116). The format is functional.
Experiment [3] concerns the target Mast/stem cell growth factor receptor Kit (Homo sapiens, UniProt P10721). Type of experiment: functional.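 Also: KIT entry within a kinase panel assay.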
Experiment [4] concerns the target Serine/threonine-protein kinase Nek2 (Homo sapiens, UniProt P51955). Type of experiment: functional.
Experiment [5] deals with T1, Lysine-specific demethylase 4C (Homo sapiens, UniProt Q9H3R0).
T1 sequence (Q9H3R0 whole entry): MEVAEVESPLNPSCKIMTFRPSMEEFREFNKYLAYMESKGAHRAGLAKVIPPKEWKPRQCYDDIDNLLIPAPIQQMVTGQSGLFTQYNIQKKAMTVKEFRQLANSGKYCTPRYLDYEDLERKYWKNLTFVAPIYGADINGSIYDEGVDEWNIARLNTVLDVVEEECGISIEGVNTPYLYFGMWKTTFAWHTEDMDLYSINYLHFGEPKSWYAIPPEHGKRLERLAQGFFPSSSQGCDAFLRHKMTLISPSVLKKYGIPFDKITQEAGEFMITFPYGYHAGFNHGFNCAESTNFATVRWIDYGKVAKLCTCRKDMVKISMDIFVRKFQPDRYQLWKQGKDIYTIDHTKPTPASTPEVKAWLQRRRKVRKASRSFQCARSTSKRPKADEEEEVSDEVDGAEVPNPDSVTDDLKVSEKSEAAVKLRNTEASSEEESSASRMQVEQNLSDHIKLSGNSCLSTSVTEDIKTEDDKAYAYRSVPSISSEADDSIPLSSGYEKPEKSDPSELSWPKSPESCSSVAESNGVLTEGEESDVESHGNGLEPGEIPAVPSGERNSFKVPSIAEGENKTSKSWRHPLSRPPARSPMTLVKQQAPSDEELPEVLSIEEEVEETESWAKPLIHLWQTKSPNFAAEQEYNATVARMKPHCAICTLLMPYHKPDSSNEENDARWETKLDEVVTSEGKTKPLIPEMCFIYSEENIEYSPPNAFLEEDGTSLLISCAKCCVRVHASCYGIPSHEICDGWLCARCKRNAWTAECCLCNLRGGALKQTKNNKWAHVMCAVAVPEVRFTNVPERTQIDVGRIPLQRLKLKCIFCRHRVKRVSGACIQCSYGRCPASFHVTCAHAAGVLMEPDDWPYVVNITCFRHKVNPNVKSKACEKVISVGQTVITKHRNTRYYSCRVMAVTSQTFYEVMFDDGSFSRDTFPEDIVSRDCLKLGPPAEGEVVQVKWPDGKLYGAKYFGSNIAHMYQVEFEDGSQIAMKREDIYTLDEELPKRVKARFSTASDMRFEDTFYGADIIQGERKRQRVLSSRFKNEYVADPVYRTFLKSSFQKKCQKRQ
As to the kind of experiment: GASC-1 (JMJD2C) histone demethylase inhibitors, dose response, biochemical, DELFIA europium, cherry-picked samples (AID 488835). Type of experiment: functional.

The target of experiment [6] is Tyrosyl-DNA phosphodiesterase 2 (Homo sapiens, UniProt O95551). Put plainly: human TDP2 enzyme inhibitors, dose response, biochemical, epi absorbance, IC50 (AID 743297).
Another experiment has as its system P388. Put plainly: cells. The format is functional. To be noted: Mus musculus.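 Also: compound exposure lasted 48 hours before growth was measured.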
The nature of experiment [7]: M. tuberculosis H37Rv growth inhibitors, H37Rv strain (AID 1626). Type of experiment: functional.
For experiment [8], the system named is BJ. As to the kind of experiment: cells. The format is functional, cell-based. The conditions noted are these: Homo sapiens.
Experiment [9] deals with BJ. As to the kind of experiment: cytotoxicity toward BJ-TERT fibroblasts, dose response, cell-based, RAS-independent, luminescence (AID 1933). Type of experiment: functional. To be noted: Homo sapiens.
A short description of experiment [10]: inhibitors of clade B AD8 Env fusion, dose response, cell-based, cherry-pick (AID 652062).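 Also: luciferase signal from cell-cell fusion driven by HIV-1 clade B AD8 Env; potency is for inhibitors of fusion seen as a drop in luminescence.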 The format is functional.
For a further experiment, the target named is T2, Hexokinase HKDC1 (Homo sapiens, UniProt Q2TB90).
T2 sequence (Q2TB90 whole entry): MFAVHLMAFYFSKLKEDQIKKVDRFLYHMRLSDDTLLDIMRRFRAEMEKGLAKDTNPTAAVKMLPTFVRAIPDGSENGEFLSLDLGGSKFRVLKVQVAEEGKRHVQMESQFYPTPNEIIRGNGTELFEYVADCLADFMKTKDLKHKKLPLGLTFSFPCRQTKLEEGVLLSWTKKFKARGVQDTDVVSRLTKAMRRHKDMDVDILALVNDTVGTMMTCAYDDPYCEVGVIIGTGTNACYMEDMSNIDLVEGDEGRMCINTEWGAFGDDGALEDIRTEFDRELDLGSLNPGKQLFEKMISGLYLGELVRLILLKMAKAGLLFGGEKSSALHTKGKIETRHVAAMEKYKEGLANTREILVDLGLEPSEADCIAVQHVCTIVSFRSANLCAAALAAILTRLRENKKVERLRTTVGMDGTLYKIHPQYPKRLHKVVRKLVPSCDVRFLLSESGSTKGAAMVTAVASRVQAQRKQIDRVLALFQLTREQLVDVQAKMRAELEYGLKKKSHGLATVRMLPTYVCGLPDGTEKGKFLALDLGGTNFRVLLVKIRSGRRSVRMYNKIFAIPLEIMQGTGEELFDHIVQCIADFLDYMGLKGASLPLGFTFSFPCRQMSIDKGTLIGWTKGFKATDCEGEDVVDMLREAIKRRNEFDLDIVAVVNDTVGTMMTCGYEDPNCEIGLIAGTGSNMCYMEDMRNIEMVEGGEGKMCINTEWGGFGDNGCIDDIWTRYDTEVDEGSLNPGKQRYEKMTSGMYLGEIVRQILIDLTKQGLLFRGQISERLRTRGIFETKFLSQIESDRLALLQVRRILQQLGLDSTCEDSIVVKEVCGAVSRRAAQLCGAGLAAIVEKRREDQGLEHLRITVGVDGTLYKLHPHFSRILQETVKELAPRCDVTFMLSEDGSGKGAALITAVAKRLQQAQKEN
Put plainly: HKDC1 hexokinase inhibitors, dose response, biochemical, W721R variant (AID 504729). Type of experiment: functional.

Experiment [11] can be described thus: CEM21 lymphoblast cell cytotoxicity, dose response, cytotoxicity control for viral fusion inhibitor project, CellTiter-Glo luminescence, cherry-picked (AID 652042).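 Also: potency for signal decrease meaning cytotoxicity.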 Type of experiment: functional, cell-based. For orientation: ATP-based viability assays read luminescence as a measure of living cells.
Experiment [12] has as its target Dual specificity tyrosine-phosphorylation-regulated kinase 1A (Rattus norvegicus, UniProt Q63470). Type of experiment: biochemical, Homo sapiens.
Experiment [13] can be described thus: Intein inhibitors as potential Tuberculosis drugs, a cytotoxicity screen. [Related pubchem assays (depositor defined):AID2221, AID2223, AID434968, AID435010, AID449749, AID449750, AID489010]. Type of experiment: functional.
A further experiment has as its system Streptococcus. As to the kind of experiment: Group A Streptococcus viability loss, dose response, counter-screen for streptokinase expression inhibitor project, luminescence, BacTiterGlo (AID 1915).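 Also: potency for reduction of bacterial viability or growth.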 The format is functional, organism-based.
The test system of experiment [14] is Streptococcus sp. 'group A'. As to the kind of experiment: growth inhibition of control SK(-) GAS strain, dose response, counter-screen for streptokinase expression inhibitor project, luminescence, kanamycin, BacTiterGlo, confirmation (AID 1900). The format is functional, organism-based. A general note: Counterscreens check selectivity or assay interference.

Experiment [15] has as its target Mitochondrial peptide methionine sulfoxide reductase (Bos taurus, UniProt P54149). The format is functional.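 Also: absorbance read-out, biochemical high-throughput dose-response screen for MsrA inhibitors, confirmatory; recombinant bovine MsrA coupled to E. coli TrxB with NADPH and selenocystamine; potency is for inhibitors of MsrA activity on DMSO substrate.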
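For CC50 in this document: cells exposed to compound for 72 hours before luminescence readout.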

Rho-associated protein kinase 2, sequence (O75116 whole entry): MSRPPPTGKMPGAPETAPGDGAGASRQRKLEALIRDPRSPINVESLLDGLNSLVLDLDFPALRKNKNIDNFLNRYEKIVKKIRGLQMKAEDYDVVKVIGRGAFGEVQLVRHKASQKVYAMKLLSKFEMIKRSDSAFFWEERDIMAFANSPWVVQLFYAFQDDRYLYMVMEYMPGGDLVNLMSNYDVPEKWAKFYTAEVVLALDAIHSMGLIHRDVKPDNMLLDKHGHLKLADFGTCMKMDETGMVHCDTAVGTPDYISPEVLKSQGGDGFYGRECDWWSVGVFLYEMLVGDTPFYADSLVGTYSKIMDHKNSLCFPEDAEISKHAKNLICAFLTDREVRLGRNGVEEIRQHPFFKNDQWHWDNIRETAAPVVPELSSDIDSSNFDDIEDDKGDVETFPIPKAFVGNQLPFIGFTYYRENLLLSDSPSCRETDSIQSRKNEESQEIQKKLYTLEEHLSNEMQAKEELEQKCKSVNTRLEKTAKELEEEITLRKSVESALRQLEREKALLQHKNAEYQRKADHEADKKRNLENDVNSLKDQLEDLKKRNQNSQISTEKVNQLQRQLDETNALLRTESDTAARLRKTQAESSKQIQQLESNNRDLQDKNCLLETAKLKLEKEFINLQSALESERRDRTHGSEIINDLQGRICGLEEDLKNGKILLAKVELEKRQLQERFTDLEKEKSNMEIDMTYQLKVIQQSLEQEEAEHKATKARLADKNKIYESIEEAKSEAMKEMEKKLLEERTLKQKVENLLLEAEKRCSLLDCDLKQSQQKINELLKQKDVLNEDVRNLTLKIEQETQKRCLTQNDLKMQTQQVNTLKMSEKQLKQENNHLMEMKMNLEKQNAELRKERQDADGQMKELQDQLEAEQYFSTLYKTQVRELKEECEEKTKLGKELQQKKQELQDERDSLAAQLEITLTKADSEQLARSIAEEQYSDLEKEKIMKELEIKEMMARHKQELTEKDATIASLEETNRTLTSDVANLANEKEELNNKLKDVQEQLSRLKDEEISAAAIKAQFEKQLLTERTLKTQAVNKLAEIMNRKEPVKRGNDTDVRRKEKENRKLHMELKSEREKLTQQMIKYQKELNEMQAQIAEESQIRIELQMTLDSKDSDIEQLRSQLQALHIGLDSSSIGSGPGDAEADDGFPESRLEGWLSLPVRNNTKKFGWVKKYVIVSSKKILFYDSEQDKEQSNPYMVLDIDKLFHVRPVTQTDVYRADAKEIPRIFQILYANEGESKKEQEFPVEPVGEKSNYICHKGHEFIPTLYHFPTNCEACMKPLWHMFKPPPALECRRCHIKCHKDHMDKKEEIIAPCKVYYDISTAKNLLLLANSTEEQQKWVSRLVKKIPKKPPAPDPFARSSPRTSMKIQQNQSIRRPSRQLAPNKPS
Serine/threonine-protein kinase Nek2, sequence (P51955 whole entry): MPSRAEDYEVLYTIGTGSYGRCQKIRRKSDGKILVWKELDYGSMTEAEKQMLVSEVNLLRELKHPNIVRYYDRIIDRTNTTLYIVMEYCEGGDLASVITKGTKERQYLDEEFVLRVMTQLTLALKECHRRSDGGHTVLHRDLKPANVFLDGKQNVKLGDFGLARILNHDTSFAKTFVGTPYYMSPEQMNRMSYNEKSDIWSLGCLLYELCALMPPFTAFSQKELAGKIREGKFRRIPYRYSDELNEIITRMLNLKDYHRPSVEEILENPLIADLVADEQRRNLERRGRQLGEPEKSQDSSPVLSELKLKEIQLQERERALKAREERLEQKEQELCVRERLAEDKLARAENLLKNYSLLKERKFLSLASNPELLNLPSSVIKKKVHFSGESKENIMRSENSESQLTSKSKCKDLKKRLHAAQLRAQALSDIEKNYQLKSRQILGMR
Mitogen-activated protein kinase 10, sequence (P53779 whole entry): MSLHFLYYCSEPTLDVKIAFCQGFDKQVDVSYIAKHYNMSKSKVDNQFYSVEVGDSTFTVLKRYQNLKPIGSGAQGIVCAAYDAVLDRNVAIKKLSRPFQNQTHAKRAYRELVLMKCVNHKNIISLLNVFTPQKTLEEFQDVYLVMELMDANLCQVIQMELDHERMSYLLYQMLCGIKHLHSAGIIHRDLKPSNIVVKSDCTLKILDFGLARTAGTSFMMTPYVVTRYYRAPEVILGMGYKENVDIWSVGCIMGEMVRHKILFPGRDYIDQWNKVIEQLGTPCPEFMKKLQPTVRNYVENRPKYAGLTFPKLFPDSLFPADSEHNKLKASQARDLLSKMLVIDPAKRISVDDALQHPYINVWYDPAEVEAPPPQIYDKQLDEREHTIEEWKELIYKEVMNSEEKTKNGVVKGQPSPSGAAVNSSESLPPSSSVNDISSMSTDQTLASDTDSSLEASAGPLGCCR
Mitochondrial peptide methionine sulfoxide reductase, sequence (P54149 whole entry): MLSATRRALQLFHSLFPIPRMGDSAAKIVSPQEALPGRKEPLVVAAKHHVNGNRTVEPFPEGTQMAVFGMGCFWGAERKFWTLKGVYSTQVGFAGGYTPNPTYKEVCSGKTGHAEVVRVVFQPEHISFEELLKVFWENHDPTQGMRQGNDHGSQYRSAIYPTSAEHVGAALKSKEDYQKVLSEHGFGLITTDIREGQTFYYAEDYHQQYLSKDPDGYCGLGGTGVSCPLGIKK
Mast/stem cell growth factor receptor Kit, sequence (P10721 whole entry): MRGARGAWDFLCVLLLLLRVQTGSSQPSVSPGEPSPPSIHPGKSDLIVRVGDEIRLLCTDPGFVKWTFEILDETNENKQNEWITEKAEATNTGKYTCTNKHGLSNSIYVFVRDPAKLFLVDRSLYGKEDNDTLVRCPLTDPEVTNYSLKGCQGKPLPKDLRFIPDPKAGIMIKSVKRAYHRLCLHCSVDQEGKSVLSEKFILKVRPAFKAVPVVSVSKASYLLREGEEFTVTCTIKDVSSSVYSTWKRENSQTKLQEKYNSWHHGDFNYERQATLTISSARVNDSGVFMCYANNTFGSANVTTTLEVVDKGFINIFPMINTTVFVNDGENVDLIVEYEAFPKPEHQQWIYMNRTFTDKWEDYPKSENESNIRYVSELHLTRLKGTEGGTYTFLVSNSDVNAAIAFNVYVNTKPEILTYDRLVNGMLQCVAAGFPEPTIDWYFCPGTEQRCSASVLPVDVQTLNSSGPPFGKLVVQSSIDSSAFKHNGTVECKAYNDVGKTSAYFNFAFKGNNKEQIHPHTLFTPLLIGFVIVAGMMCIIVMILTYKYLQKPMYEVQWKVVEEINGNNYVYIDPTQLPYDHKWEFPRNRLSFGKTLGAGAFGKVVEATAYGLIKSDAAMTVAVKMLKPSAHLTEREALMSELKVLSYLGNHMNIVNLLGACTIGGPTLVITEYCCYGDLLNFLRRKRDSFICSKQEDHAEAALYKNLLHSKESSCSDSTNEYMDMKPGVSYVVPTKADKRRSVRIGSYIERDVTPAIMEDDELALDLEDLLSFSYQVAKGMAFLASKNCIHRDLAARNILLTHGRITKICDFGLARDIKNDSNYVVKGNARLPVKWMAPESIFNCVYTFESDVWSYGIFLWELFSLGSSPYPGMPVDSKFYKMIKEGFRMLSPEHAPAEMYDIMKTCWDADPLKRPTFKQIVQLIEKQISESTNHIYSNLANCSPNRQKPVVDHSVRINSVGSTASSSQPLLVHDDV
Tyrosyl-DNA phosphodiesterase 2, sequence (O95551 whole entry): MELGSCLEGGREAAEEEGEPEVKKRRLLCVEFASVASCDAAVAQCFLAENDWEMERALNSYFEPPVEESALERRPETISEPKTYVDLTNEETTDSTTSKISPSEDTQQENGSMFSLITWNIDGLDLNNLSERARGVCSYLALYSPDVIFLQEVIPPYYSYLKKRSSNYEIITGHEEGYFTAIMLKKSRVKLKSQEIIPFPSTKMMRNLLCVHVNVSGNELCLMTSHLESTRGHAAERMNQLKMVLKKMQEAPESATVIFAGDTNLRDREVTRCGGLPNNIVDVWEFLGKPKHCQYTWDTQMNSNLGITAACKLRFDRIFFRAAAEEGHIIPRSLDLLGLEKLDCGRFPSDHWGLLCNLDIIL

Regarding `CCC1CC(NS(=O)(=O)C2CC2)CC1c1ncc2cnc3[nH]ccc3n12` (stereo not drawn), the Ki in experiment [1] was > 3.16 µM (inactive); in experiment [2], 0.0126 µM (active); in experiment [3], > 6.31 µM (inactive).
With `O=C(Nc1cccc(C(F)(F)F)n1)Nc1ccnc2cc(OC(F)F)ccc12`, in experiment [4], the Ki is > 3.16 µM (inactive).
On to `O=C(Cc1ccccc1)NC1(O)C(=O)c2ccccc2C1=O`, for which the AC50 in [5] was 5.55 µM (active). The IC50 in experiment [6] was 13.2 µM (inactive).
For `COC(=O)c1nc(-c2ccc3c(n2)C(=O)C(=N)C(OC)=C3O)c(N)c(-c2ccc(OC)c(OC)c2O)c1C`, the GI50 in the experiment with P388 is 1.49 µM (inactive). The IC50 in experiment [7] was > 100 µM (active). The EC50 was 4.56 µM (active) in the experiment with BJ [8] and 5.91 µM (active) in the experiment on BJ [9].
`Cc1cc(C)c(S(=O)(=O)/N=C2\C=C(Nc3ccc(C(=O)O)cc3)C(=O)c3ccccc32)c(C)c1`: the AC50 in [10] is 9.55 µM (active); in experiment [11], 9.3 µM (active); in [12], 1.8 µM (active). In addition, the IC50 on Hexokinase HKDC1 is 15.2 µM (active); in [15] it was 44.8 µM (inactive). For the same compound, in [13], the CC50 is 7.89 µM (active). Besides, the values for the EC50 (in the experiment with Streptococcus; in experiment [14]) were 2.6 µM (active) and 0.561 µM (active), respectively.
